Source: patent US9499553B2 (CHUGAI SEIYAKU KABUSHIKI KAISHA, priority 2013, dated 2016)

target: T1, human NaPi-IIb (Homo sapiens, UniProt O95436); experiment: Inhibitory effect on 33PO4 uptake into human NaPi-IIb-expressing CHO cells; type: cell-based; details: read-out: IC50
T1 construct: expressed in transfected cells
T1 sequence (O95436 1-690): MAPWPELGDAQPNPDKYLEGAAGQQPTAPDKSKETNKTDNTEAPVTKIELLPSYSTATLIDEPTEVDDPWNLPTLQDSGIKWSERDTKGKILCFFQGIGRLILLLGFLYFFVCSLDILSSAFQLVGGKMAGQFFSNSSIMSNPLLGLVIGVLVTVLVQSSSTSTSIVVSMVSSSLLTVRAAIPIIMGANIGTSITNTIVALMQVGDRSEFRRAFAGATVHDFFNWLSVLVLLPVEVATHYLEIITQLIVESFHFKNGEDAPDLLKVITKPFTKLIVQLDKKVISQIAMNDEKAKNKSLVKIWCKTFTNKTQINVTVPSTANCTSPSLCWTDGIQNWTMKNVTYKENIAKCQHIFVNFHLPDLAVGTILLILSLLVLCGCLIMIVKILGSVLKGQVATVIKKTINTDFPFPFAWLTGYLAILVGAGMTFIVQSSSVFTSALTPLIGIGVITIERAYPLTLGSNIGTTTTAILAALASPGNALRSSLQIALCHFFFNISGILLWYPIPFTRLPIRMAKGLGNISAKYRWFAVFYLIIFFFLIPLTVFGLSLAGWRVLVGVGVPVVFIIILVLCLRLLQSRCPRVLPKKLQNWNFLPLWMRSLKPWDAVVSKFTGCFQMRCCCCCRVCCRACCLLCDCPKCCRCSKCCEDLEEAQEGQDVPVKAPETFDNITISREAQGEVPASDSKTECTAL
How it was run: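 Uptake of ³³PO4 was measured by scintillation counting after ice-cold buffer A washes. Cells were CHO stably expressing human NaPi-IIb, seeded overnight, and exposed to ³³PO4 in buffer A at room temperature.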

Row | SMILES | IC50 [µM]
1 | CN1N(Cc2ccc(OCCN3CCOCC3)c(F)c2F)C(=O)C(C(=O)Nc2ccc(Cl)cc2-c2ccc(C(F)(F)F)nc2)=C(O)C12CCCC2 [Example 288] | 11
2 | C[C@]12CCCN1N(Cc1ccc(CCCCCCC(=O)O)c(F)c1F)C(=O)C(C(=O)Nc1ccc(Cl)cc1-c1ccc(C(F)(F)F)nc1)=C2O [Example 116, 7-[4-[[(4aR)-3-[[4-Chloro-2-[6-(trifluoromethyl)pyridin-3-yl]phenyl]carbamoyl]-4-hydroxy-4a-methyl-2-oxo-6,7-dihydro-5H-pyrrolo[1,2-b]pyridazin-1-yl]methyl]-2,3-difluorophenyl]heptanoate] | 8.1
3 | CSc1ccc(-c2nc(C(F)(F)F)ccc2NC(=O)C2=C(O)[C@@]3(C)CCCN3N(Cc3cccc(F)c3F)C2=O)cn1 [Example 105] | 6.3
4 | C[C@]12CCCN1N(Cc1cccc(F)c1F)C(=O)C(C(=O)Nc1ccc(C(F)(F)F)cc1-c1cnc(C#N)c([N+](=O)[O-])c1)=C2O [Example 99, (4aR)—N-[2-(6-Cyano-5-nitropyridin-3-yl)-4-(trifluoromethyl)phenyl]-1-[(2,3-difluorophenyl)methyl]-4-hydroxy-4a-methyl-2-oxo-6,7-dihydro-5H-pyrrolo[1,2-b]pyridazine-3-carboxamide] | 4.3
5 | CSc1ccc(-c2cc(C(F)(F)F)ccc2NC(=O)C2=C(O)[C@H](C(C)(C)C)N(C)N(Cc3ccc(OCCN4CCOCC4)c(F)c3F)C2=O)cn1 [Example 268] | 7.4
6 | C[C@]12CCCN1N(Cc1cccc(F)c1)C(=O)C(C(=O)Nc1ccc(C(F)(F)F)cc1-c1ccc(C(F)(F)F)nc1)=C2O [Example 206] | 2
7 | C[C@]12CCCN1N(Cc1cc(F)ccc1F)C(=O)C(C(=O)Nc1ccc(C(F)(F)F)cc1-c1ccc(C(F)(F)F)nc1)=C2O [Example 172] | 2.4
8 | CSc1ccc(-c2cc(C(F)(F)F)ccc2NC(=O)C2=C(O)[C@@]3(C)CCCN3N(Cc3ccc(C#CCCCCC(=O)O)c(F)c3F)C2=O)cn1 [Example 117, 7-[4-[[(4aR)-4-Hydroxy-4a-methyl-3-[[2-(6-methylsulfanylpyridin-3-yl)-4-(trifluoromethyl)phenyl]carbamoyl]-2-oxo-6,7-dihydro-5H-pyrrolo[1,2-b]pyridazin-1-yl]methyl]-2,3-difluorophenyl]hept-6-ynoate] | 9.5
9 | C[C@]12CCCN1N(Cc1ccccc1Cl)C(=O)C(C(=O)Nc1ccc(C(F)(F)F)cc1-c1cc(C(F)(F)F)ncn1)=C2O [Example 180] | 5.7
10 | CN1N(Cc2cccc(F)c2F)C(=O)C(C(=O)Nc2ccc(Cl)cc2-c2ccc(C(F)(F)F)nc2)=C(O)C12CCC2 [Example 256] | 4.4
11 | Cc1c(-c2cc(C(F)(F)F)ccc2NC(=O)C2=C(O)C3(CCCCC3)N(C)N(Cc3ccc(OCCN4CCOCC4)c(F)c3F)C2=O)ncnc1C(F)(F)F [Example 296] | 10
12 | CN1N(Cc2ccc(OCCN3CCOCC3)c(F)c2F)C(=O)C(C(=O)Nc2ccc(Br)c(C(F)(F)F)n2)=C(O)C12CCCCC2 [Example 298] | > 30
13 | CSc1ccc(-c2cc(C(F)(F)F)ccc2NC(=O)C2=C(O)[C@@]3(C)CCCN3N(Cc3ccc(OCCN4CCOCC4)c(F)c3F)C2=O)cn1 [Example 103] | 11
14 | C[C@]12CCCN1N(Cc1cccc(F)c1F)C(=O)C(C(=O)Nc1ccc(Br)cn1)=C2O [Example 78] | 5.2
15 | C[C@]12CCCN1N(Cc1ccc(OCCCCCO)c(F)c1F)C(=O)C(C(=O)Nc1ccc(C(F)(F)F)cc1-c1cc(C(F)(F)F)ncn1)=C2O [Example 162] | 15.1
16 | CN1[C@@H](C(C)(C)C)C(O)=C(C(=O)Nc2ccc(C(F)(F)F)cc2-c2ccc(C(F)(F)F)nc2)C(=O)N1Cc1ccc(OCCN2CCOCC2)c(F)c1F [Example 266] | 11.6
17 | Cc1cccc(CN2C(=O)C(C(=O)Nc3ccc(C(F)(F)F)cc3-c3cc(C(F)(F)F)ncn3)=C(O)[C@@]3(C)CCCN23)c1F [Example 215] | 6.2
18 | C[C@]12CCCN1N(Cc1ccc(C#CCN3CCOCC3=O)c(F)c1F)C(=O)C(C(=O)Nc1ccc(Br)c(F)c1)=C2O [Example 133] | 13.1
19 | Cc1c(C#N)ncnc1-c1cc(C(F)(F)F)ccc1NC(=O)C1=C(O)C(C)(C)N(C)N(Cc2cccc(F)c2F)C1=O [Example 311] | 8.2

Results, then the compound that gave them:

Row | IC50 [µM] | SMILES
20 | 14.2 | CN1N(Cc2ccc(C#CCN3CCOCC3)c(F)c2F)C(=O)C(C(=O)Nc2ccc(Cl)cc2-c2cc(C(F)(F)F)ncn2)=C(O)C1(C)C [Example 316]
21 | 8.8 | CN1N(Cc2ccc(OCCN3CCOC(C)(C)C3)c(F)c2F)C(=O)C(C(=O)Nc2ccc(C(F)(F)F)cc2-c2cc(C(F)(F)F)ncn2)=C(O)C12CCC2 [Example 342]
22 | 19.7 | CN1N(Cc2ccc(OCC(=O)N3CCOCC3)c(F)c2F)C(=O)C(C(=O)Nc2ccc(C(F)(F)F)cc2-c2cc(C(F)(F)F)ncn2)=C(O)C12CCC2 [Example 336, 8-[[2,3-Difluoro-4-(2-morpholin-2-oxo-ethoxy)phenyl]methyl]-5-hydroxy-9-methyl-7-oxo-N-[4-(trifluoromethyl)-2-[6-(trifluoromethyl)pyrimidin-4-yl]phenyl]-8,9-diazaspiro[3.5]non-5-ene-6-carboxamide]
23 | 10.3 | CN1N(Cc2ccc(OCCCCCC(=O)O)c(F)c2F)C(=O)C(C(=O)Nc2ccc(C(F)(F)F)cc2-c2cc(C(F)(F)F)ncn2)=C(O)C12CCCC2 [Example 334]

same assay, conditions: read-out: IC50 against 33PO4 uptake into human NaPi-IIb-expressing cells

Row | IC50 [µM] | SMILES
24 | 18.4 | CN1CCN(CCOc2ccc(CN3C(=O)C(C(=O)Nc4ccc(C(F)(F)F)cc4-c4cc(C(F)(F)F)ncn4)=C(O)C4(CCC4)N3C)c(F)c2F)CC1=O [Example 359]
25 | 16.7 | CN1N(Cc2ccc(OCCn3cncn3)c(F)c2F)C(=O)C(C(=O)Nc2ccc(C(F)(F)F)cc2-c2cc(C(F)(F)F)ncn2)=C(O)C12CCC2 [Example 352]
26 | 21.9 | COC1(C)CN(CCOc2ccc(CN3C(=O)C(C(=O)Nc4ccc(C(F)(F)F)cc4-c4cc(C(F)(F)F)ncn4)=C(O)C4(CCC4)N3C)c(F)c2F)C1 [Example 356]
27 | 4.6 | COCCN(C)CCOCCOCCOc1ccc(CN2C(=O)C(C(=O)Nc3ccc(C(F)(F)F)cc3-c3cc(C(F)(F)F)ncn3)=C(O)C3(CCCC3)N2C)c(F)c1F [Example 430]
28 | 24.6 | CN1N(Cc2ccc(OCCCOC[C@H](O)CO)c(F)c2F)C(=O)C(C(=O)Nc2ccc(C(F)(F)F)cc2-c2cc(C(F)(F)F)ncn2)=C(O)C12CCC2 [Example 389]
29 | 20.9 | CN(C)C(=O)N1CCN(CCOc2ccc(CN3C(=O)C(C(=O)Nc4ccc(C(F)(F)F)cc4-c4cc(C(F)(F)F)ncn4)=C(O)C4(CCC4)N3C)c(F)c2F)CC1 [Example 364]
30 | 12.8 | CN1CCC(Oc2ccc(CN3C(=O)C(C(=O)Nc4ccc(C(F)(F)F)cc4-c4cc(C(F)(F)F)ncn4)=C(O)C4(CCC4)N3C)c(F)c2F)CC1 [Example 411]
31 | 18.8 | CN1N(Cc2ccc(OCCN3CCN(CCCO)CC3)c(F)c2F)C(=O)C(C(=O)Nc2ccc(C(F)(F)F)cc2-c2cc(C(F)(F)F)ncn2)=C(O)C12CCC2 [Example 362]
32 | 18.9 | CN1N(Cc2ccc(OCCCOC[C@H](O)CO)c(F)c2F)C(=O)C(C(=O)Nc2ccc(C(F)(F)F)cc2-c2ccc(C(F)(F)F)nc2)=C(O)C12CCCC2 [Example 386]
33 | 21.8 | CSC1CN(CCOc2ccc(CN3C(=O)C(C(=O)Nc4ccc(C(F)(F)F)cc4-c4cc(C(F)(F)F)ncn4)=C(O)C4(CCC4)N3C)c(F)c2F)C1 [Example 357]
